Measured values reported in patent US12622910B2, “Inhibitors of Bruton's tyrosine kinase and methods of their use” (Janssen Pharmaceutica NV, priority 2021, dated 2026).
Read-outs that look alike come from different tables or passages of the source. Marks after values point to notes of the source that are not given here.

Test: Phase 1 first-in-human study, plasma pharmacokinetics
Assay type: in vivo
Settings: for half-life / Tmax / AUC(0-inf) / Cmax / AUC(0-t): male, human, plasma, po
Procedure: Safety, tolerability, PK, and BTKO were assessed for six doses of compound of Formula (III) oral solution (4, 12, 36, 100, 200, 400 mg) in participants under fasted conditions. The SAD part comprised 10 cohorts of 8 participants each (FIG. 1). In each cohort receiving compound of Formula (III) oral solution (Cohorts 1-9), 6 participants were randomized to receive compound of Formula (III) and 2 to receive placebo. All participants in Cohort 10 received compound of Formula (III) as an oral capsule. All 10 cohorts included 2 sentinel participants who were dosed ˜24 hours prior to the rest of the cohort. In cohorts receiving compound of Formula (III) oral solution, 1 sentinel participant received compound of Formula (III) and the other received placebo.
Six male escalating dose cohorts received a single oral dose of 4, 12, 36, 100, 200, 400 mg compound of Formula (III) or placebo solution under fasted conditions. Gender effects were assessed in 2 female cohorts whose participants received either a 36 or 100 mg dose of compound of Formula (III) or placebo as an oral solution under fasted conditions. Food effects were evaluated in a male cohort receiving compound of Formula (III) 100 mg or placebo as an oral solution after a high-fat breakfast.
Safety, tolerability, and PK of a solid dose formulation of compound of Formula (III) were assessed in an additional male cohort (Cohort 10) that received 3×35 mg (105 mg) of compound of Formula (III) in the fasted state. Since all the participants received the same dose of compound of Formula (III), this cohort was not blinded.
Safety, tolerability, PK, and BTKO following multiple compound of Formula (III) doses were evaluated in 3 dose escalation cohorts with a total of 18 participants (males: 9, females: 9) receiving active study drug. In each cohort, 3 males and 3 females were randomized to receive 36 mg once-daily (QD), 100 mg QD, or 200 mg QD compound of Formula (III) oral solution and 3 participants (males: 2; female: 1) to receive placebo. Two male participants in each cohort served as sentinel participants: one received compound of Formula (III) and other received placebo ˜48 hours prior to other participants in the cohort. All safety and tolerability data (through the follow-up visit), PK data (through at least 24 hours after last dose administration), and all available PD data were reviewed from each cohort before a decision was made to dose escalate.
Sample collection—For the PK assessment of compound of Formula (III), venous blood samples (2 to 4 mL each) were collected predose and at 15 min, 0.5, 1, 1.5, 2, 2.5, 3, 4, 6, 8, 12, 24, 36, 48, and 72 hours post-dose in Part 1. In Part 2, samples were collected predose and at 15 min, 0.5, 1, 1.5, 2, 2.5, 3, 4, 6, 8, 12 hours post-dose on day 1, predose and 1 hour post-dose on days 2-9, and predose and at 15 min, 0.5, 1, 1.5, 2, 2.5, 3, 4, 6, 8, 12, 24, 48, and 72 hours after the last dose on day 10. Plasma samples were analyzed to determine concentrations of compound of Formula (III) using a scientific validated, specific, and sensitive liquid chromatography-mass spectrometry (LC-MS/MS) method.
The PK analysis for the compound of Formula (III) samples was performed using a non-compartmental method with validated Phoenix® WinNonlin® (version 8.0, Certara L.P.).

[1] = 36 mg, single 36 mg oral solution, male fasted
[2] = 100 mg, single 100 mg oral solution, male fasted
[3] = 100 mg, single 100 mg oral solution, male fed (high-fat breakfast)
[4] = 105 mg, single 105 mg (3 × 35 mg) oral capsule, male fasted
[5] = 200 mg, single 200 mg oral solution, male fasted
[6] = 400 mg, single 400 mg oral solution, male fasted
[7] = single 12 mg oral solution, male fasted
[8] = single 100 mg oral solution, female fasted

C=CC(=O)N[C@H]1CCC[C@H]1NC(=O)c1sc2nccc3c2c1NC(=O)N3c1cnc(CC(C)C)cc1C (atropisomer, axis not shown) [compound of Formula (III), N-((1R,2S)-2-Acrylamidocyclopentyl)-5-(S)-(6-isobutyl-4-methylpyridin-3-yl)-4-oxo-4,5-dihydro-3H-1-thia-3,5,8-triazaacenaphthylene-2-carboxamide]
half-life (12 mg, single 12 mg oral solution, male fasted, read-out: t1/2, λz (converted)): 1.6 h
Tmax (12 mg, single 12 mg oral solution, male fasted, read-out: tmax, median (min-max)): 1 h
AUC(0-inf) [1]: 644 ng·h/mL
Cmax [1]: 200 ng/mL
AUC(0-t) (36 mg, single 36 mg oral solution, male fasted, read-out: AUC0-24 h): 649 ng·h/mL
AUC(0-t) (36 mg, single 36 mg oral solution, male fasted, read-out: AUClast): 649 ng·h/mL
half-life (36 mg, single 36 mg oral solution, male fasted, read-out: t1/2, dom (converted)): 1.6 h
half-life (36 mg, single 36 mg oral solution, male fasted, read-out: t1/2, λz (converted)): 2.1 h
Tmax (36 mg, single 36 mg oral solution, male fasted, read-out: tmax, median (min-max)): 1 h
AUC(0-inf) [2]: 20.6 ng·h/mL
Cmax [2]: 923 ng/mL
AUC(0-t) (100 mg, single 100 mg oral solution, male fasted, read-out: AUC0-24 h): 2140 ng·h/mL
AUC(0-t) (100 mg, single 100 mg oral solution, male fasted, read-out: AUClast): 2140 ng·h/mL
half-life (100 mg, single 100 mg oral solution, male fasted, read-out: t1/2, dom (converted)): 1.9 h
half-life (100 mg, single 100 mg oral solution, male fasted, read-out: t1/2, λz (converted)): 5 h
Tmax (100 mg, single 100 mg oral solution, male fasted, read-out: tmax, median (min-max)): 0.5 h
AUC(0-inf) [3]: 1760 ng·h/mL
Cmax [3]: 277 ng/mL
AUC(0-t) (100 mg, single 100 mg oral solution, male fed (high-fat breakfast), read-out: AUC0-24 h): 1720 ng·h/mL
AUC(0-t) (100 mg, single 100 mg oral solution, male fed (high-fat breakfast), read-out: AUClast): 1750 ng·h/mL
half-life (100 mg, single 100 mg oral solution, male fed (high-fat breakfast), read-out: t1/2, dom (converted)): 2 h
half-life (100 mg, single 100 mg oral solution, male fed (high-fat breakfast), read-out: t1/2, λz (converted)): 10.8 h
Tmax (100 mg, single 100 mg oral solution, male fed (high-fat breakfast), read-out: tmax, median (min-max)): 2.5 h
AUC(0-inf) [4]: 1500 ng·h/mL
Cmax [4]: 345 ng/mL
AUC(0-t) (105 mg, single 105 mg (3 × 35 mg) oral capsule, male fasted, read-out: AUC0-24 h): 1320 ng·h/mL
AUC(0-t) (105 mg, single 105 mg (3 × 35 mg) oral capsule, male fasted, read-out: AUClast): 1450 ng·h/mL
half-life (105 mg, single 105 mg (3 × 35 mg) oral capsule, male fasted, read-out: t1/2, dom (converted)): 1.9 h
half-life (105 mg, single 105 mg (3 × 35 mg) oral capsule, male fasted, read-out: t1/2, λz (converted)): 14.2 h
Tmax (105 mg, single 105 mg (3 × 35 mg) oral capsule, male fasted, read-out: tmax, median (min-max)): 1.5 h
AUC(0-inf) [5]: 2780 ng·h/mL
Cmax [5]: 1210 ng/mL
AUC(0-t) (200 mg, single 200 mg oral solution, male fasted, read-out: AUC0-24 h): 2750 ng·h/mL
AUC(0-t) (200 mg, single 200 mg oral solution, male fasted, read-out: AUClast): 277 ng·h/mL
half-life (200 mg, single 200 mg oral solution, male fasted, read-out: t1/2, dom (converted)): 1.8 h
half-life (200 mg, single 200 mg oral solution, male fasted, read-out: t1/2, λz (converted)): 12.9 h
Tmax (200 mg, single 200 mg oral solution, male fasted, read-out: tmax, median (min-max)): 1 h
AUC(0-inf) [6]: 4200 ng·h/mL
Cmax [6]: 1920 ng/mL
AUC(0-t) (400 mg, single 400 mg oral solution, male fasted, read-out: AUC0-24 h): 3700 ng·h/mL
AUC(0-t) (400 mg, single 400 mg oral solution, male fasted, read-out: AUClast): 3830 ng·h/mL
half-life (400 mg, single 400 mg oral solution, male fasted, read-out: t1/2, dom (converted)): 2.2 h
half-life (400 mg, single 400 mg oral solution, male fasted, read-out: t1/2, λz (converted)): 13.2 h
Tmax (400 mg, single 400 mg oral solution, male fasted, read-out: tmax, median (min-max)): 0.75 h
half-life (single 4 to 400 mg oral solution, male fasted, read-out: mean t1/2, dom across doses): 1.5 to 2.2 h
half-life (single 4 to 400 mg oral solution, male fasted, read-out: mean t1/2, λz across doses): 1.6 to 13.2 h
Tmax (single 4 to 400 mg oral solution, male fasted, read-out: median tmax across doses): 0.5 to 1 h
AUC∞/Dose (single 4 mg oral solution, male fasted): 38.9 (12.5) h · ng/mL/mg
AUC∞/Dose [7]: 26.4 (9.07) h · ng/mL/mg
Cmax/Dose [7]: 7.33 ng/mL
mean Cmax and AUCs, females higher than males by (single 36 mg fasted): 17-27%
AUC∞/Dose (single 36 mg oral solution, female fasted): 1.9 (0.5) h · ng/mL/mg
AUC∞/Dose (single 36 mg oral solution, male fasted): 17.9 (6.64) h · ng/mL/mg
mean Cmax and AUCs, females lower than males by (single 100 mg fasted): 30-35%
AUC∞/Dose [8]: 13.4 (4.60) h · ng/mL/mg
t1/2, λz [8]: 11.67 (7.8)^c h
AUC∞/Dose (single 100 mg oral solution, male fasted): 20.6 (7.60) h · ng/mL/mg
AUC∞/Dose (single 100 mg oral solution, male fed (high-fat breakfast)): 17.6 (4.20) h · ng/mL/mg
Cmax lowered by high-fat meal (single 100 mg, fed vs fasted): approximately 70%
AUC∞/Dose (single 105 mg (3 × 35 mg) oral capsule, male fasted): 14.3 (7.59) h · ng/mL/mg
AUC∞/Dose (single 200 mg oral solution, male fasted): 13.9 (3.80) h · ng/mL/mg
AUC∞/Dose (single 400 mg oral solution, male fasted): 9.11 (4.68) h · ng/mL/mg
